Measurements as given in patent EP4772634A1, “DOUBLE-STRANDED RNA TARGETING COAGULATION FACTOR XI” (Chia Tai Tianqing Pharmaceutical Group Co., Ltd., priority 2023, dated 2025).

Columns and labels:
[1] = test system: human coagulation factor XI protein; experiment: In vivo activity in human coagulation factor XI model mice (Experimental Example 3), plasma FXI protein by ELISA; conditions: humanized mice
Procedure: The humanized mice used in this experimental example were purchased from Cyagen Biosciences Co., Ltd. The humanized mice were randomly divided into groups, with 4 mice per group. The compound and PBS control (pH = 7.2) were administered to each group of mice, respectively. The day of the first administration was designated as day 0 of the experiment. The corresponding compound solutions were administered via a single subcutaneous injection based on animal body weight, at administration doses of 1 mg/kg and 5 mg/kg. PBS control mice were each administered PBS, with an administration volume of 10 mL/kg body weight. Orbital blood was collected before administration and on day 7, day 14, day 28, day 42, and day 63 after administration. Plasma was separated, and the content of the coagulation factor XI protein in the plasma was measured at each time point.
About 165 µL of blood was collected from the orbital veins for plasma collection. A 3.8% trisodium citrate anticoagulant was added to the whole blood in a volume ratio of 1:9 (anticoagulant:[…], v/v), and the mixture was centrifuged at 3000 rpm at 20 °C for 15 min to collect plasma. The content of the coagulation factor XI protein in the plasma obtained from the above groups of mice (test groups administered the compound and PBS control group) was measured using a Human Coagulation Factor XI ELISA kit (Sigma, Cat. No. RAB1385-1KT).
(§1) The coagulation factor XI protein inhibition rate was calculated according to the following equation: [formula]
Table 11 lists the measurement of FXI protein content in animal plasma before and on day 7, day 14, day 28, day 42, and day 63 after a single subcutaneous administration of siRNA ligand conjugates (TD01M01L01, TD02M01L01) at doses of 1 mg/kg and 5 mg/kg to humanized homozygous mice. […] Table 11. In vivo experimental design

[2] = test system: human coagulation factor XI protein; experiment: In vivo activity in human coagulation factor XI model mice (Experimental Example 4), FXI protein by ELISA; conditions: female humanized homozygous mice, single subcutaneous 3 mg/kg
Procedure: The humanized mice used in this experimental example were purchased from Cyagen Biosciences Co., Ltd. The female humanized homozygous mice were randomly divided into groups, with 4 mice per group. The compound and PBS control (pH = 7.2) were administered to each group of mice, respectively. The day of the first administration was designated as day 0 of the experiment. The corresponding compound solutions were administered via a single subcutaneous injection based on animal body weight, at an administration dose of 3 mg/kg. PBS control mice were each administered PBS, with an administration volume of 10 mL/kg body weight. Orbital blood was collected before administration and on day 3, day 7, day 14, day 21, day 28, day 42, day 56, and day 70 after administration. Serum was separated, and the content of the coagulation factor XI protein in the serum at each time point was measured using a Human Coagulation Factor XI ELISA kit (Thermo, Batch No. 2350072722, Cat. No. EH118RB).
as §1
Table 13 lists the measurement of coagulation factor XI protein content in animal plasma before and on day 3, day 7, day 14, day 21, day 28, day 42, day 56, and day 70 after a single subcutaneous administration of siRNA ligand conjugates at a dose of 3 mg/kg to humanized homozygous mice. […] Table 13. In vivo experimental design

[3] = test system: human coagulation factor XI protein; experiment: In vivo activity in AAV-FXI model mice, serum FXI protein by ELISA; conditions: AAV-FXI mice (C57BL/6 male), single subcutaneous 3 mg/kg
Procedure: 4-6 week old C57BL/6 male mice were injected via the tail vein with 1 × 10^11 vg of AAV8-FXI (WZ Biosciences). On day 28 after modeling, mice with an hFXI protein content of greater than 100 ng/mL were selected. The mice were randomly divided into groups based on body weight and were injected with 3 mg/kg of the dsRNA ligand conjugate of the present application (amount calculated based on siRNA only) on day 0. Orbital blood was collected on day 7, day 14, day 35, and day 56. Serum was separated, and the content of the coagulation factor XI protein in the serum at each time point was measured using a Human Coagulation Factor XI ELISA kit (Thermo, Cat. No. EH118RB).
as §1
The content of the coagulation factor XI protein in animal serum was measured before and on day 7, day 14, day 35, and day 56 after a single subcutaneous administration of the dsRNA ligand conjugate of the present application at a dose of 3 mg/kg to AAV-FXI mice (see Table 15). […] Table 15. In vivo experimental design

[4] = single subcutaneous 1 mg/kg, D7
[5] = single subcutaneous 1 mg/kg, D14
[6] = single subcutaneous 1 mg/kg, D28
[7] = single subcutaneous 1 mg/kg, D42
[8] = single subcutaneous 1 mg/kg, D63
[9] = single subcutaneous 5 mg/kg, D7
[10] = single subcutaneous 5 mg/kg, D14
[11] = single subcutaneous 5 mg/kg, D28
[12] = single subcutaneous 5 mg/kg, D42
[13] = single subcutaneous 5 mg/kg, D63

Substance | Relative inhibition rate (%) of FXI protein [1, 4] [%] | Relative inhibition rate (%) of FXI protein [1, 5] [%] | Relative inhibition rate (%) of FXI protein [1, 6] [%] | Relative inhibition rate (%) of FXI protein [1, 7] [%] | Relative inhibition rate (%) of FXI protein [1, 8] [%] | Relative inhibition rate (%) of FXI protein [1, 9] [%] | Relative inhibition rate (%) of FXI protein [1, 10] [%] | Relative inhibition rate (%) of FXI protein [1, 11] [%] | Relative inhibition rate (%) of FXI protein [1, 12] [%] | Relative inhibition rate (%) of FXI protein [1, 13] [%] | Relative inhibition rate (%) of FXI protein ([3]; D7) [%] | Relative inhibition rate (%) of FXI protein ([3]; D14) [%] | further results
TD01M01L01: siRNA ligand conjugate: TD01M01 with L01 (GalNAc) ligand at 3' end of sense strand SEQ ID NO 29; antisense SEQ ID NO 30 (sense GATCTCCAACTAAAATACT; antisense AGTATTTTAGTTGGAGATCCG; GalNAc L01 ligand at sense 3' end, 2'-OMe/2'-F, pattern not given here) | 58.1 | 67.5 | 58.6 | 68.8 | 41.3 | 90.5 | 92.8 | 89.5 | 91.8 | 74.4 |  |  | 
TD01M02L01: siRNA ligand conjugate: TD01M02 with L01 (GalNAc) ligand at 3' end of sense strand SEQ ID NO 31; antisense SEQ ID NO 32 (sense GATCTCCAACTAAAATACT; antisense AGTATTTTAGTTGGAGATCCG; GalNAc L01 ligand at sense 3' end, 2'-OMe/2'-F, pattern not given here) | 65.1 | 67.4 | 62.5 | 69.3 | 44.6 | 90.9 | 93.1 | 92.4 | 93.1 | 76.6 |  |  | Relative inhibition rate (%) of FXI protein ([2]; D3): 69.3%; Relative inhibition rate (%) of FXI protein ([2]; D7): 88.5%; Relative inhibition rate (%) of FXI protein ([2]; D14): 91.8%; Relative inhibition rate (%) of FXI protein ([2]; D21): 91.7%; Relative inhibition rate (%) of FXI protein ([2]; D28): 91.3%; Relative inhibition rate (%) of FXI protein ([2]; D42): 86.1%; Relative inhibition rate (%) of FXI protein ([2]; D56): 76.1%; Relative inhibition rate (%) of FXI protein ([2]; D70): 68.9%
TD02M01L01: siRNA ligand conjugate: TD02M01 with L01 (GalNAc) ligand at 3' end of sense strand SEQ ID NO 33; antisense SEQ ID NO 34 (sense GGATGATTTTCTTATATCA; antisense TGATATAAGAAAATCATCCTG; GalNAc L01 ligand at sense 3' end, 2'-OMe/2'-F, pattern not given here) | 61.5 | 63.9 | 49.2 | 52.9 | 41.1 | 91.8 | 94.0 | 87.8 | 89.4 | 69.0 |  |  | 
TD05M02L01: dsRNA ligand conjugate: TD05M02 with L01 (GalNAc) ligand at 3' end of sense strand SEQ ID NO 47; antisense SEQ ID NO 48 (sense CTTTTCAGGATGATTTTCT; antisense AGAAAATCATCCTGAAAAGAC; GalNAc L01 ligand at sense 3' end, 2'-OMe/2'-F, pattern not given here) |  |  |  |  |  |  |  |  |  |  | 96.3 | 96.6 | Relative inhibition rate (%) of FXI protein ([3]; D35): 81.7%; Relative inhibition rate (%) of FXI protein ([3]; D56): 51.0%
TD12M02L01: dsRNA ligand conjugate: TD12M02 with L01 (GalNAc) ligand at 3' end of sense strand SEQ ID NO 75; antisense SEQ ID NO 76 (sense TGATTTTCTTATATCAAGT; antisense ACTTGATATAAGAAAATCATC; GalNAc L01 ligand at sense 3' end, 2'-OMe/2'-F, pattern not given here) |  |  |  |  |  |  |  |  |  |  | 88.4 | 88.0 | 
